Experimental findings from patent publication US9566251B2, “Volatile anesthetic compositions and methods of use” (Board of Regents, The University of Texas System, priority 2008, dated 2017) are described below.

Where “and” joins values, the source holds several entries; their conditions need not be identical. Equal entries are not always repeated.

Data set [1] has as its system rats. Put plainly: Plantar Heat Stimulation Test after subcutaneous injection into the hindpaw. The format is in vivo. The conditions noted are these: rat, 100 μl subcutaneously into one hindpaw; for antinociceptive effect (paw withdrawal latency, treated vs untreated paw): cutoff 22 seconds. On the procedure:
Rats are assessed for response to thermal stimulation using the Plantar Heat Stimulation Test (i.e., radiant heat) (Planar Analgesia Instrument, Ugo Basile, Italy) by measuring paw withdrawal latency. 100 μl of pureform Isoflurane or 100 μl of 2% Lidocaine was injected subcutaneously into the planar surface of one hindpaw of each rat. For each rat, the untreated, contralateral hindpaw served as its own control.
After the rats acclimated for 15 minutes under acrylic boxes that allow minimal movement, a heat source was positioned beneath the mid-plantar surface of the hind paw. Withdrawal latency was defined as the period of time from the beginning of the thermal stimulation to the brisk withdrawal of the hind paw. To avoid tissue damage, a cutoff time of 22 seconds was set. Thermal stimulation was applied three times to each hind paw at an interstimulus interval of 3-5 minutes. Thermal withdrawal latency was assessed before and after the treatment. An increase in the withdrawal latency in the treated paw compared to the control paw was assessed as analgesic activity of the tested formulation.
For statistical comparison, student paired t-test analysis was used. Differences were considered significant at P<0.05 (# P<0.05 isoflurane versus control n=4; * P<0.05 lidocaine versus control n=3).

The test system of data set [2] is Sprague-Dawley rats. Put plainly: Hotplate test (thermal withdrawal latency) after intrathecal injection of volatile anesthetic. The data set is classed as in vivo. The conditions noted are these: rat; for Thermal withdrawal latency, Average / Thermal withdrawal latency, Group Average: 2 microliters intrathecal; for Thermal withdrawal latency, Average: average per rat; for Thermal withdrawal latency, Group Average: group of four rats, saline control 8.33 seconds; for thermal latency time (analgesic effect): intrathecally delivered dose of 2 microliters. On the procedure:
This study was designed to evaluate efficacy of direct intrathecal injection of volatile anesthetic in reducing pain and providing analgesia. The study was conducted over a one (1) month period using the volatile anesthetics isoflurane and sevoflurane injected directly intrathecally or dissolved in saline as shown in the studies below. The subject animal used was the rat, since the rat has a well-established model of pain/analgesia testing. In particular, Sprague-Dawley rats weighing over 350 gm were used. The rats were anesthetized with pentobarbital (50 mg/kg), and the anesthetic depth of the animals was determined by corneal reflex and paw withdrawal reflex to a noxious stimulus.
[…]. A midline surgical dissection of the posterior neck muscles was performed to obtain access to the occipito-atlantoid membrane. This membrane was identified and then dissected. A sterile polyethylene catheter was introduced in the subarachnoid space until the lumbar enlargement of the spinal cord (approximately 7-8 cm measured in each animal). The surgical wound was closed, first suturing the neck muscles with 3-0 silk sutures and then closing the skin incision with staples.
After the surgery, the rats were moved to their cages and a radiant lamp was placed over the cages so that the rats would not undergo anesthetic-induced hypothermia. The rats were continuously monitored from the end of the surgery until they were fully awake. Rats showing any motor impairment after surgery were euthanized.
On the fifth day after surgery, those rats without wound infection or motor dysfunction were transported to the pain behavioral lab to enter the intrathecal study with volatile anesthetics. Twelve rats were selected for the study. All these rats had intrathecal catheters. Isoflurane (1-chloro-2,2,2-trifluoroethyl difluoromethyl ether) and sevoflurane (fluoromethyl 2,2,2-trifluoro-1-(trifluoromethyl)ethyl ether) were used as the halogenated ether compounds. Both of these are halogenated volatile anesthetics, with isoflurane manufactured by Baxter and sevoflurane manufactured by Abbott Laboratories. The 12 rats were divided into 3 groups of four rats each for study A and B.
In the second group, 2 microliters of isoflurane was injected via the intrathecal catheter into each rat. This catheter was also flushed with preservative-free normal saline. This group was then subjected to pain behavioral testing.
In the third group, 2 microliters of sevoflurane was injected via the intrathecal catheter into each rat. This catheter was also flushed with preservative-free normal saline. This group was then subjected to pain behavioral testing.
A “hotplate” behavioral test was used to evaluate pain perception and analgesia. The pain behavioral testing model used in these studies have been well established by Tony Yaksh. (See, for example Chaplan et al., 1994, J. Neurosci. Methods, 53:55-63; Yaksh et al., 2001, J. Appl. Physiol., 90:2386-2402; Kim and Chung, 1992, Pain, 50:355-363.; Sorkin et al., 2001, Anesthesiology, 95:965-973). This test involves determining how quickly a rat will withdraw its hind paw in response to a noxious stimulus such as a radiant heat source placed directly underneath its paw. This time for withdrawal is known as “thermal withdrawal latency”.
Rats were transferred for testing onto a modified Hargreaves apparatus with a heated glass plate maintained at 25° C. (see Hargreaves et al., 1998, Pain, 32:77-88). A focused projection bulb below the plate was aimed at the mid-plantar surface of the paw. A photodiode-activated timer measured the withdrawal latency, and a cutoff time of 25 seconds was used to prevent tissue damage. Thermal withdrawal latency to radiant heat was measured at 5 minutes and 30 minutes after each intrathecal injection. Each paw was tested three times, and the results were averaged. The below data was collected for both the right and left hind paws: […]

Data set [3] can be described thus: Isoflurane stability: weighing remaining isoflurane in uncapped vials over time. The data set is classed as physicochemical. As to conditions: uncapped vial in fume hood. On the procedure: In the Examples that follow, the stability of isoflurane in the described compositions was determined in two ways. First, the compositions were examined for the presence of phase separation at the macroscopic level. Secondly, isoflurane content of the compositions was determined by weighing the remaining isoflurane in the composition when they were left uncapped over time. […] The other vials received varying amounts of isoflurane. They were left uncapped in the hood. Over time, the vials were weighed to see if the isoflurane stayed in the composition or had evaporated. The amount evaporated over time in the vehicle control was subtracted from that in the isoflurane-containing composition. The pure form of isoflurane is a volatile anesthetic. In order to assess the volatility of isoflurane, two vials received the indicated amounts of pure form isoflurane. The vials were placed in the chemical fume hood and left uncapped. The vials were weighed at the indicated times to determine the amount of evaporated isoflurane. As it is shown in the table below 0.7893 g isoflurane was evaporated within 3 hours, while 3.4825 g isoflurane took approximately 8 hrs to evaporate completely. These amounts of isoflurane are similar to the amounts of isoflurane that were used to prepare the isoflurane compositions in the Examples that follow.

As for `CCN(CC)CC(=O)Nc1c(C)cccc1C` [Lidocaine], the “antinociceptive effect (paw withdrawal latency, treated vs untreated paw)” value in data set [1] was “significant antinociceptive effect”. In data set [1] (time after administration), the “antinociceptive effect began at” value turned out to be 5 min, the “antinociceptive effect peaked at” value amounted to 15 min and the “antinociceptive effect returned to baseline levels at” value is 45 min.
Consider `FCOC(C(F)(F)F)C(F)(F)F` [Sevoflurane, fluoromethyl 2,2,2-trifluoro-1-(trifluoromethyl)ethyl ether], for which the “Thermal withdrawal latency, Average” value in data set [2] (5 minutes after injection) was 14.65 s and 13.82 s and 13.14 s and 12.98 s; in data set [2] (30 minutes after injection), 8.61 s and 8.35 s and 8.89 s and 9.54 s. Also, in data set [2] (5 minutes after injection), the “Thermal withdrawal latency, Group Average” value came out at 13.65 s. Moreover, the “thermal latency time (analgesic effect)” value in data set [2] is “significantly increased”.
In the case of `FC(F)OC(Cl)C(F)(F)F` (centres unmarked) [Isoflurane, 1-chloro-2,2,2-trifluoroethyl difluoromethyl ether], in data set [2] (5 minutes after injection), the “Thermal withdrawal latency, Average” value is 19.25 s and 18.21 s and 18.63 s and 17.95 s; the “Thermal withdrawal latency, Group Average” value was found to be 18.51 s. For the same compound, the “Thermal withdrawal latency, Average” value in data set [2] (30 minutes after injection) is 9.48 s and 8.93 s and 10.52 s and 9.21 s. Besides, in data set [2], the “thermal latency time (analgesic effect)” value was “significantly increased”. Besides, in data set [1], the “duration of antinociceptive effect” value is listed as “continued throughout the experiment” and the “antinociceptive effect (paw withdrawal latency, treated vs untreated paw)” value was “significant antinociceptive effect”. The “antinociceptive effect began at” value in data set [1] (time after administration) is 25 min. In data set [3] (0.7893 g pure form), the “time until isoflurane was evaporated” value is not above 3 h. The “time to evaporate completely” value in data set [3] (3.4825 g pure form) is recorded as “approximately 8 hrs”.
